Data taken from patent US12616705B2, “Use of cannabinoids in the treatment of Angelman syndrome” (JAZZ PHARMACEUTICALS RESEARCH UK LIMITED, priority 2016, dated 2026).

Assays:
[1] = test system: Heterozygous mice with maternal deficiency of Ube3A (Ube3am−/p+); experiment: Clasping test (ataxia) in a mouse model of Angelman syndrome; type: in vivo; details: AS mice, CBD 20 mg/kg i.p. daily, chronic treatment (30 days), at 10 weeks of age, vs AS mice treated with vehicle; FIG. 1
Method: (§1) Heterozygous mice with maternal deficiency of Ube3A (Ube3am−/p+) and wild type (Ube3am+/p+) were purchased from The Jackson Laboratory (Jackson code: B6.12957-Ube3a tm1Alb/J) and maintained in a C57BL/6 background.
(§2) Drugs were dissolved in 1:1:18 ethanol:cremophor: 0.9% saline, for intraperitoneal (i.p.) administration. […]
Clasping: The clasping test assesses ataxia in mice. Mice were suspended by the base of the tail and their behaviours were recorded for 30 seconds. The time for which the mice clasped their hind limbs was recorded. The time was then scored as follows: 4, 15-30 s, 3, 10-15 s, 2, 5-10 s, 1, 0-5 s and 0, 0 s.

[2] = test system: Heterozygous mice with maternal deficiency of Ube3A (Ube3am−/p+); experiment: Rotarod test (balance and motor coordination) in a mouse model of Angelman syndrome; type: in vivo; details: AS mice, CBD 20 mg/kg i.p. daily, chronic treatment (30 days), vs AS mice treated with vehicle; FIG. 2
Method: as §1, §2
Rotarod: The rotarod test assesses balance and motor coordination of mice. Mice have been measured for the time (in seconds) of equilibrium before falling on a rotary cylinder by a magnet that, activated from the fall of the mouse on the plate, allows to record the time of permanence on the cylinder. […] The animals were analysed by 2 separate tests at 1-h interval in the same day.

[3] = test system: Heterozygous mice with maternal deficiency of Ube3A (Ube3am−/p+); experiment: Tail suspension test (depressive-like behaviour) in a mouse model of Angelman syndrome; type: in vivo; details: AS mice, CBD 20 mg/kg i.p. daily, vs AS mice treated with vehicle; FIG. 4
Method: as §1
Drugs were dissolved in 1:1:18 ethanol:cremophor: 0.9% saline, for intraperitoneal (i.p.) administration. Drug treatment was performed daily for 35 days.
Tail suspension: The tail suspension test assesses depressive-like behaviour in mice. Mice were individually suspended by the tail on a horizontal bar (50 cm from floor) using adhesive tape placed approximately 4 cm from the tip of the tail. The duration of immobility was recorded in seconds over a period of 6 minutes by a time recorder. Immobility time was defined as the absence of escape-oriented behaviour.

[4] = background statement; cited from earlier work

SMILES	clasping duration [1]	latency to fall (rotarod) [2]	duration of immobility time (tail suspension) [3]	side effects [4]
C=C(C)[C@@H]1CCC(C)=C[C@H]1c1c(O)cc(CCCCC)cc1O [CBD, Cannabidiol]	significantly reduced clasping duration	significantly reduced latency to fall	significantly reduced the duration of immobility time	–
Cc1c(C(=O)NN2CCCCC2)nn(-c2ccc(Cl)cc2Cl)c1-c1ccc(Cl)cc1 [rimonabant]	–	–	–	serious side effects which limit its use, such as suicide ideation
